row,Compound,melting point
1,Cc1nnc(COc2ccc(NC(=O)/C=C/c3cnn(C)c3-c3ccc(F)cc3)cc2)o1,117 to 118 °C
2,FC(F)C(F)(F)Oc1ccc(C=NNc2nc(Nc3ccc(OC(F)(F)F)cc3)nc(N3CCOCC3)n2)cc1,203 to 206 °C
3,O=C(NCCCCCCCCCCCCO)OC1CCN(C(=O)Oc2ccc(Oc3ccccc3)cc2)CC1,75 to 76 °C
4,CCOC(=O)C(Cc1ccc(-c2ccc([N+](=O)[O-])cc2)o1)(NC(C)=O)C(=O)OCC,183 to 185 °C
5,CCNC(=O)c1ccc(N2CCN(Cc3cnc4c(c3)[nH]c(=O)n3cccc43)CC2)c(Cl)c1,266 to 271 °C
6,Cc1cc(C)c(Nc2nc(C)ncc2S(=O)(=O)c2ccc(-c3cncnc3)cc2)c(C)c1,210 to 212 °C
7,CC(=O)Nc1ccc(C=CC(=O)N2CCc3c([nH]c4ccccc34)C2c2ccccc2)cc1 (centres undefined),177 to 180 °C
8,C=CCOc1cc(-c2cc(=O)c3c(OC)cc(OCC4=COC(C)(C)O4)cc3o2)ccc1OC,156 °C
9,O=Cc1c[nH]c2cccc(OCC3CO3)c12 (centres undefined),108 to 110 °C
10,Cc1ccc(S(=O)(=O)NC(=O)N2C(=O)C(c3ccccc3)N2C(c2ccccc2)c2ccccc2)cc1 (centres undefined),154 to 156 °C
11,Cc1cnc(C2=NC(C)(C(C)C)C(=O)N2)c(C(=O)c2ccc(C)s2)c1 (centres undefined),173 to 175 °C
12,O=C1N(Cc2ccc(C(F)(F)F)o2)c2ccccc2C12COc1cc3c(cc12)OCO3 (centres undefined),103 to 105 °C
13,CCN1c2ncccc2C(=O)N(C)c2ccc(-c3c[nH]nc3C)nc21,113 to 115 °C
14,O=C1Cc2cc(CCCl)ccc2N1,168 to 170 °C
15,Nc1nc(-c2cn([C@H](CO)CCc3ccccc3)cn2)n[nH]1,80 °C
16,CNCC1Cc2cc(Cl)cc(-c3ccccc3OC)c2O1 (centres undefined),100 to 102 °C
17,Cc1nc(SCc2cc(O)nc(O)n2)sc1CC(=O)O,246 to 247 °C
18,Clc1ccc(N2CC(c3ccccc3)=C(c3ccccc3)C2)cc1,158 °C
19,Cn1cc(CC(=O)O)c(OCCCc2cn(-c3ccc(C(F)(F)F)cn3)nc2C2CCCCC2)n1,157 to 158 °C
20,Cc1cc(C#N)cc(C(=O)Nc2cccc(F)c2)n1,139 °C
21,O=C(CN1CCNCC1)Cn1c2ccc(Br)cc2c2cc(Br)ccc21,175 °C
22,CCCn1cc2c(C3C(=O)Nc4ccc(Br)cc43)nc(NCC3CCCN3)nc2n1 (centres undefined),286 to 293 °C
23,CC=CCn1c(C)c(C)c2cnnc(OCc3c(F)cccc3F)c21,85 to 94 °C
24,CC(=O)NC[C@H]1CN(c2ccc(-n3cnnc3)c(F)c2)C(=O)O1,204 to 206 °C
25,N#CC(C(=O)NC1CC1)C(=O)C1CC1 (centres undefined),136 to 138 °C

row,Compound,melting point
1,O=C(O)c1c(Cc2cc3c(cc2Cl)OCO3)c(-c2cccs2)nn1CC1CCCC(C(=O)O)C1 (centres undefined),> 260 °C
2,CCCCc1nc2c(c(=O)[nH]1)CN(C(=O)C(C)(C)O)CC2,159 to 161 °C
3,COC(=O)C(=CN(C)C)N(C)c1nc(-c2ccc(Br)cc2)cs1,184 to 185 °C
4,CCCCCCOc1ccc(CCC(=O)OC2CCC3C4CCC5=CC(=O)CCC5C4CCC23C)cc1 (centres undefined),52 to 53 °C
5,N#Cc1ccc(-c2ccc(O)cn2)cc1,210 °C
6,Clc1cccc2cnsc12,50 to 51 °C
7,Cn1c(=O)c(C#N)c(N2CCNCC2)c2cc(Cl)ccc21,223 °C
8,CN1CC(=O)OC2(CCN(CC=CC(=O)Nc3cc4c(Nc5ccc(F)c(Cl)c5)ncnc4cc3OCC3CC3)CC2)C1,125 to 130 °C
9,O=C(Cl)c1sc2ccc(OCc3ccccc3)cc2c1Cl,139 to 142 °C
10,O=C(CCCCOc1ccc(-c2ccc(F)cc2)cc1)NO,160 to 162 °C
11,O=C(NCC(F)(F)F)C1CC(=O)N(Cc2ccccc2)C1 (centres undefined),110 to 112 °C
12,O=C(CBr)Nc1ccccc1C(=O)O,165 to 168 °C
13,CCCc1nc2c(N)nc3cc(-c4cccc(C(=O)NC5CC5)c4)ccc3c2s1,251 to 254 °C
14,COc1ccc(C/N=C/C(/C=N/Cc2ccc(OC)cc2)[N+](=O)[O-])cc1,132 °C
15,CCc1ccc2c(c1NC(=O)CC1c3ccccc3Oc3ccccc31)OC(C)C2 (centres undefined),278 to 279 °C
16,CCCn1cnc(C(N)=O)c1NC(=S)NC(=O)c1ccccc1,163 to 164 °C
17,OCc1ncc(-c2cccs2)s1,67 to 68 °C
18,O=C(O)c1ccc(-c2ccccc2OC2OC(CO)C(O)C(O)C2O)cc1 (centres undefined),248 to 249 °C
19,CCc1cc(-c2cccc(NC(C)=O)n2)c(OC)cc1OCCN(C)C,114 °C
20,COc1cc(Nc2c(C#N)cnc3cc(OCc4ccccc4)c(OC)cc23)c(Cl)cc1Cl,198 to 200 °C
21,CCCc1nc(SC(F)F)c(C(=O)O)n1Cc1ccc(-c2ccccc2S(=O)(=O)NC(=O)NCCC2=CCCCC2)cc1,114 °C
22,CCCc1c(OC(C(=O)O)c2ccc(Cl)cc2)ccc(C(C)=O)c1O (centres undefined),163 to 164 °C
23,CC(=O)Nc1ccc(C(=O)Oc2ccccc2)c(OC(C)=O)c1,142 to 143 °C
24,CCN(CC)CCOc1ccc(CNC(=O)C#Cc2ccc(C)cc2Cl)cc1,135 to 138 °C
25,CC(=O)Nc1ccc(OC(F)F)c(F)c1,112 to 113 °C

row,Compound,melting point
1,c1cncc(-c2ccc3nncn3n2)c1,199 to 200 °C
2,O=Cc1ccc(OC(F)F)c2oc3ccc([N+](=O)[O-])cc3c12,245 to 248 °C
3,CCC1(C)OC(c2ccc(S(N)(=O)=O)cc2)=C(c2ccco2)C1=O (centres undefined),154 to 155 °C
4,O=CN(O)C(CCO)CS(=O)(=O)c1ccc(-c2ccc(F)cc2)cc1 (centres undefined),160 to 162 °C
5,Nc1c(Br)cc(C(=O)CCC(=O)O)cc1Br,200 to 202 °C
6,CC(=O)CCNc1ccc(-c2cc(-c3ccc(C(=O)O)cc3)ccc2OCCCCO)cc1C(C)(C)C,75 °C
7,CC(C)[C@H]1[C@@H](O)CC(=O)N1c1ccc(C#N)c(Cl)c1,100 to 102 °C
8,O=C(O)CCNC(=O)c1cccc(NC(=O)c2csc(NC(=O)NCc3ccccc3)n2)c1,157 °C
9,Cc1cccc(-c2ccccc2)c1NC(=N)N(C)C,144 to 145 °C
10,COc1cc(OC)nc(Oc2cccc3c2C(=O)SC3C)n1 (centres undefined),157 to 159 °C
11,Cn1nc(Sc2ccc(C(=O)O)c(Cl)c2)n(C)c1=O,222 °C
12,CC(=O)NC1(c2ccc(CCl)cc2)CC1,124 to 127 °C
13,CC(C)(C)OC(=O)NCc1cccc(C2CCNCC2)c1,79 to 84 °C
14,CN1C(=O)C(c2ccc(OC(F)(F)F)c(F)c2)(c2ccc(F)c(-c3cncnc3)c2)N=C1N (centres undefined),102 to 110 °C
15,COC(=O)C(=CNc1ccnc(-c2ccncc2)n1)C(=O)OC,209 to 211 °C
16,CCCCCC(CC(=O)Nc1cc(C(N)=O)ccc1C(C)(C)C)c1cc(C)c(OC)cc1OC (centres undefined),179 to 180 °C
17,COCCOc1ccc(/C=C(\C)C(=O)NS(=O)(=O)c2ccc(Cl)cc2)c(Oc2ncc(C(F)(F)F)cc2Cl)c1,146 °C
18,CC(C)c1ccc(N(Cc2cnn(Cc3ccc(Cl)s3)c2)C(=O)C2CCCc3c(O)cccc32)cn1 (centres undefined),98 to 101 °C
19,Fc1ccc(N2CCN(CCCN(c3ccccc3)c3ccccc3)CC2)cc1,87 to 88 °C
20,CC(=O)OC1CSC(Oc2cc(Br)cnc2Cl)C(OC(C)=O)C1OC(C)=O (centres undefined),143 to 147 °C
21,CS(=O)c1nccc(-c2cn(Cc3ccccc3C#N)c(=O)n2-c2ccc(F)cc2)n1 (centres undefined),133 to 136 °C
22,OC1(c2cccn2Cc2ccccc2F)CCN(CCc2ccccc2)CC1,130 to 131 °C
23,Cc1ccc(C=NNC(=O)c2ccc(O)cc2)s1,216 °C
24,CC(=O)Nc1nc2cc3[nH]c(-c4ccncc4)nc3cc2[nH]1,> 330 °C
25,CCOC(=O)c1cc(-c2ccccc2)oc1C(F)(F)F,44 to 45 °C

row,Compound,melting point
1,CCCCNC(=NC#N)Nc1cccnc1,96 to 97 °C
2,O=C(Nc1ccc(C(=O)N2Cc3ccccc3Cc3ccccc32)cc1)c1ccccc1-c1ccccc1,224 to 225 °C
3,CCOC(=O)CN(c1ccc(Cl)cc1)[C@H]1c2cc(C#N)ccc2OC(C)(C)[C@@H]1O,172 °C
4,Nc1cccc(-c2ccc(CCN3CCN(C(=O)Cc4ccc(F)cc4)CC3)cc2)n1,143 to 145 °C
5,"CC(=O)c1ccc(-c2ccc(CC(C)O)cc2)cc1 (single isomer, unassigned; (-))",139 to 140 °C
6,Cc1nccc(-c2cccc(S(=O)(=O)n3c(CCCC(=O)O)cc4nc(Cl)ccc43)c2)n1,178 to 188 °C
7,CC(C)[C@H](NC(=O)OCc1ccccc1)C(=O)NC(Cc1ccccc1)C(O)C(N)Cc1ccccc1 (some centres undefined),158 to 160 °C
8,CCOC(=O)c1cc(Cl)cnc1N,120 to 122 °C
9,CCCCc1nc2c(c(C)c(C)n3nnnc23)n1CC(C)(C)N,144 to 147 °C
10,COc1cccc(S(=O)(=O)N2C3CCC2CN(CC(=O)Nc2ccccc2C)C3)c1,163 to 165 °C
11,C=C1CC2(C)C(O)CCC2C2C(C)CC3=CC(=O)CCC3C12 (centres undefined),138 to 139 °C
12,CC(=O)Nc1ccc(OC(=O)CO)cc1,144 to 146 °C
13,CCCCn1ccc2cc(-c3ccc(C(F)(F)F)cc3)ccc21,52 to 53 °C
14,CCN(CC)CCNC(=O)Cn1ncc(-c2ccccc2)c1-c1ccccc1,67 to 69 °C
15,COC(=O)C(C)(C)S(=O)(=O)N1CCC(c2ccc(-c3cccc(OCCO)n3)c(C)c2)CC1,108 to 111 °C
16,COc1c(C)c(-c2ccccc2)nn1N,92 to 94 °C
17,CNCCn1nc(N)c2cc3cc(OC)ccc3nc21,142 to 144 °C
18,Nc1nc(=O)n(C2OC(CO)C(O)C2F)cc1Br (centres undefined),201 to 202 °C
19,C=CCOP(=O)(OCC=C)C(N)=O,91 to 94 °C
20,CS(=O)(=O)N1CC=C(c2ccc3cnc(Nc4ccc(N5CCOCC5)cc4)nn23)CC1,238 to 240 °C
21,O=C1NCCc2c1c1ccccc1n2Cc1ccccc1,209 to 212 °C
22,O=[N+]([O-])c1ccc(F)cc1OCc1ccccc1,52 to 54 °C
23,CCc1c(-c2ccc(OCc3ccccc3)cc2)c2c(COCCCCCCCN3CCCCC3)cc3c(OCc4ccccc4)ccc1n32,86 to 90 °C
24,Cn1nnc(-c2[nH]c3ccccc3c2Cl)n1,197 to 199 °C

# Source: a melting point compilation (Tetko et al.; mined from patent text by program, amines drawn as free bases though some values may be those of a salt)
